Experimental data: patent US5624902A, “Peptide inhibitors of calmodulin” (Torrey Pines Institute for Molecular Studies, priority 1995, dated 1997)
Square brackets hold non-standard residues; d marks the D form. Peptide text beside a SMILES is read from it.

Molecular target: calmodulin (Homo sapiens, UniProt P0DP23)
Assay: calcium-dependent phosphodiesterase assay (inhibition of calmodulin activity)
Type: biochemical
Settings: for IC50: concentration inhibiting 50% of calmodulin activity, assayed at 75 μM, 50 μM and 12.5 μM; for inhibition at 50 µM: inhibition of calmodulin activation of phosphodiesterase at 50 μM peptide, PDE without calmodulin = 100%, Calmo = 0%

SMILES	IC50 [µM]	inhibition at 50 µM [%]
CC[C@@H](C)[C@@H](NC(=O)[C@@H](Cc1c[nH]c2ccccc12)NC(=O)[C@@H](CC(C)C)NC(C)=O)C(=O)N[C@H](Cc1c[nH]cn1)C(=O)N[C@H](CC(C)C)C(=O)N[C@H](Cc1c[nH]c2ccccc12)C(N)=O [Ac-(D)Leu-(D)Trp-(D)Ile-(D)His-(D)Leu-(D)Trp-NH2] (Ac-[dL][dW][dI][dH][dL][dW]-NH2)	–	103
CC[C@@H](C)[C@@H](NC(=O)[C@@H](Cc1c[nH]c2ccccc12)NC(=O)[C@@H](CC(C)C)NC(C)=O)C(=O)N[C@@H](C(=O)N[C@H](Cc1c[nH]cn1)C(=O)N[C@H](CCCNC(=N)N)C(N)=O)[C@H](C)CC [Ac-(D)Leu-(D)Trp-(D)Ile-(D)Ile-(D)His-(D)Arg-NH2] (Ac-[dL][dW][dI][dI][dH][dR]-NH2)	43	89.5
CC[C@@H](C)[C@@H](NC(=O)[C@@H](Cc1c[nH]c2ccccc12)NC(=O)[C@@H](CC(C)C)NC(C)=O)C(=O)N[C@@H](C(=O)N[C@H](Cc1c[nH]cn1)C(=O)N[C@H](Cc1c[nH]c2ccccc12)C(N)=O)[C@H](C)CC [Ac-(D)Leu-(D)Trp-(D)Ile-(D)Ile-(D)His-(D)Trp-NH2] (Ac-[dL][dW][dI][dI][dH][dW]-NH2)	≤ 9	92.1
CSCC[C@@H](NC(=O)[C@@H](Cc1c[nH]cn1)NC(=O)[C@@H](Cc1ccccc1)NC(=O)[C@@H](Cc1ccccc1)NC(C)=O)C(=O)N[C@H](CCSC)C(=O)N1CCC[C@@H]1C(N)=O [Ctr 1, Ac-(D)Phe-(D)Phe-(D)His-(D)-Met-(D)Met-(D)Pro-NH2, reference compound] (Ac-[dF][dF][dH][dM][dM][dP]-NH2)	–	36.8
CC[C@H](C)[C@H](NC(=O)[C@H](Cc1ccccc1)NC(C)=O)C(=O)N[C@H](C(=O)N[C@@H](Cc1c[nH]c2ccccc12)C(=O)N[C@@H](Cc1ccccc1)C(=O)N[C@@H](CCC(=O)O)C(N)=O)[C@@H](C)CC [Ctr 3, Ac-Phe-Ile-Ile-Trp-Phe-Glu-NH2, reference compound] (Ac-FIIWFE-NH2)	–	107

Results, then the compound that gave them:

IC50 [µM]	inhibition at 50 µM [%]	SMILES
12	103	CC[C@@H](C)[C@@H](NC(=O)[C@@H](Cc1c[nH]c2ccccc12)NC(=O)[C@@H](CC(C)C)NC(C)=O)C(=O)N[C@H](Cc1c[nH]cn1)C(=O)N[C@H](CC(C)C)C(=O)N[C@H](CCCNC(=N)N)C(N)=O [Ac-(D)Leu-(D)Trp-(D)Ile-(D)His-(D)Leu-(D)-Arg-NH2] (Ac-[dL][dW][dI][dH][dL][dR]-NH2)
10	85.5	CC[C@@H](C)[C@@H](NC(=O)[C@@H](Cc1c[nH]c2ccccc12)NC(=O)[C@@H](CC(C)C)NC(C)=O)C(=O)N[C@@H](C(=O)N[C@H](CC(C)C)C(=O)N[C@H](CCCNC(=N)N)C(N)=O)[C@H](C)CC [Ac-(D)Leu-(D)Trp-(D)Ile-(D)Ile-(D)Leu-(D)Arg-NH2] (Ac-[dL][dW][dI][dI][dL][dR]-NH2)
> 50	23.7	CC[C@@H](C)[C@@H](NC(=O)[C@@H](Cc1c[nH]c2ccccc12)NC(=O)[C@@H](CC(C)C)NC(C)=O)C(=O)N[C@@H](C(=O)N[C@H](CC(C)C)C(=O)N[C@H](Cc1c[nH]c2ccccc12)C(N)=O)[C@H](C)CC [Ac-(D)Leu-(D)Trp-(D)Ile-(D)Ile-(D)Leu-(D)Trp-NH2] (Ac-[dL][dW][dI][dI][dL][dW]-NH2)
–	35.5	CSCC[C@@H](NC(=O)[C@@H](CCSC)NC(=O)[C@@H](Cc1ccccc1)NC(=O)[C@@H](Cc1c[nH]cn1)NC(=O)[C@@H](CC(=O)O)NC(C)=O)C(=O)N[C@H](C)C(N)=O [Ctr 2, Ac-(D)Asp-(D)His-(D)Phe-(D)Met-(D)Met-(D)-Ala-NH2, reference compound] (Ac-[dD][dH][dF][dM][dM][dA]-NH2)
< 75	–	NCCCCNS(=O)(=O)c1ccc2c(Cl)cccc2c1 [Peptide W13, N-(4-aminobutyl)-5-chloro-2-naphtalenesulfonamide, reference compound]
